# Where two headings read alike, the source gives them in different places.
# Assays:
# Assay type in all cases: in vivo
# [1] = tested on: Nezara viridula; experiment: Corn seed treatment, damage protection against Nezara viridula (Example-3); conditions: 4th instar N. viridula, assessed 10DAT
# Protocol: Ginkgolide A was dissolved in DMSO and applied to corn seeds at rates of 1.0 and 0.5 mg of Ginkgolide A per plant. One seed was planted per pot in a 1:1 mixture of North Carolina loamy sand:sand. Prior to infestation, soil was covered with parafilm to prevent insect exposure to treated soil. After emergence of the plants, each pot was infested with four 4th instar Nezara viridula insects. Insects were contained on the pots using organza fabric bags. Four replicates on different plants were made for each measurement. The mean damage protection of the corn plants was assessed 10DAT in comparison with untreated controls. For plant height, root mass, and root length, evaluation of the damage protection of the plants was carried out for each treatment as the increase from the infested solvent blank (SB) relative to the increase of the uninfested control from the infested solvent blank: (Treatment−Infested SB)/Uninfested SB−Infested SB)×100%. The results of the mean damage protection values were gathered in Table F.
# [2] = tested on: Euschistus heros; experiment: Spray of Agrisure Viptera and Roundoup Ready 2 maize seedlings with ginkgolide A, control of Euschistus heros (Example-5); conditions: for Relative Efficacy 3DAI: Abbott's formula; for No of alive insects 3DAI: ten adult E. heros per plant
# Protocol: (§1) Relative efficacy (E) values were calculated according to Abbot's formula E=[(C−G)/C]×100, wherein C is the percentage of alive insects in untreated controls, and G is the percentage of alive insects in plants treated with components of the ginkgo tree.
# (§2) Agrisure™ Viptera and Roundoup Ready™ 2 Zea mays seedlings were sprayed with 1 ml of compositions comprising either no component of the ginkgo tree, or bilobalide at a concentration of 50, 100, or 150 ppm. Plants were allowed to dry and subsequently infested with ten adult insects of Euschistus heros. Three replicate measurement on different plants were made for each measurement. Six days after infestation (6DAI) number of live and dead insects was determined. The mean number of alive insects, as well as the relative efficacy values (E) according to Abbott's formula were gathered in Table G, wherein the number of alive insects in untreated controls (C) was the value of the same plant without the application of bilobalide.
# Three days after infestation (3DAI) number of live and dead insects was determined. The mean number of alive insects, as well as the relative efficacy values (E) according to Abbott's formula were gathered in Table H, wherein the number of alive insects in untreated controls (C) was the value of the same plant without the application of ginkgolide A.
# [3] = tested on: Nezara viridula; experiment: Soil drench on corn, mortality of Nezara viridula (Example-2); conditions: soil drench 2.5 mg active ingredient per plant, infested 3DAT, measured 7DAT
# Protocol: Ginkgolide A and Bilobalide were each dissolved in a solution of 50 wt % of acetone in water and applied to the soil of corn four days after planting at a rate of 2.5 mg of the active ingredient per plant. Prior to infestation the soil was covered with parafilm to prevent insect exposure to treated soil. Each plant was infested 3DAT with four 4th instar Nezara viridula insects. Insects were contained on the plant using organza fabric bags. Four replicates on different plants were made for each measurement. The mortality of the insects was measured 7DAT. The mean mortality values were gathered in Table E.
# [4] = tested on: Nezara viridula; experiment: Foliar spray of maize plants, mortality of Nezara viridula (Example-1); conditions: for mortality at 100 ppm: Nezara viridula, foliar, 72 h
# Protocol: Zea mays plants were grown to growth stage BBCH 12. The maize plants were then sprayed with 300 l/ha of aqueous compositions comprising either no component of the ginkgo tree, 300 ppm of ginkgolide A, or 100 ppm of bilobalide. The plants were then allowed to dry and subsequently infested with five insects (either adult, or 4th instar nymphs) of Nezara viridula. Insects were contained on the plant using mesh organza bags. Three replicates on different plants were made for each measurement. Three days after infestation, the number of live and dead insects was determined. The mean mortality values were gathered in Table D.
# [5] = tested on: Euschistus heros; experiment: Spray of Agrisure Viptera and Roundoup Ready 2 maize seedlings with bilobalide, control of Euschistus heros (Example-4); conditions: for Relative Efficacy 6DAI: Abbott's formula; for No of alive insects 6DAI: ten adult E. heros per plant
# Protocol: as §1, §2
# [6] = Agrisure Viptera maize, 10 ppm ginkgolide A
# [7] = Agrisure Viptera maize, 250 ppm ginkgolide A
# [8] = Roundoup Ready 2 maize, 10 ppm ginkgolide A
# [9] = Roundoup Ready 2 maize, 250 ppm ginkgolide A
# [10] = Agrisure Viptera maize, 50 ppm bilobalide
# [11] = Agrisure Viptera maize, 100 ppm bilobalide
# [12] = Agrisure Viptera maize, 150 ppm bilobalide
# [13] = Roundoup Ready 2 maize, 50 ppm bilobalide
# [14] = Roundoup Ready 2 maize, 100 ppm bilobalide
# [15] = Roundoup Ready 2 maize, 150 ppm bilobalide
compound,measurement,setting,value
C[C@@H]1C(=O)O[C@H]2C[C@@]34[C@H]5C[C@@H](C(C)(C)C)[C@]36[C@@H](OC(=O)[C@@H]6O)O[C@@]4(C(=O)O5)[C@]21O [Ginkgolide A],Mean damage protection,[1]; seed treatment 0.5 mg/seed,64%
same,Mean damage protection,[1]; seed treatment 1.0 mg/seed,77%
same,Relative Efficacy 3DAI,[2]; [6],38%
same,No of alive insects 3DAI,[2]; [6],5.3
same,Relative Efficacy 3DAI,[2]; [7],35%
same,No of alive insects 3DAI,[2]; [7],5.7
same,Relative Efficacy 3DAI,[2]; [8],14%
same,No of alive insects 3DAI,[2]; [8],8.3
same,Relative Efficacy 3DAI,[2]; [9],21%
same,No of alive insects 3DAI,[2]; [9],7.7
same,Mortality of 4th instar nymphs relative to untreated control,[3],100%
same,Mortality of 4th instar nymphs,"[4]; 300 ppm ginkgolide A, 300 l/ha spray on Zea mays BBCH 12, 4th instar N. viridula, three days after infestation",61.5%
same,Mortality of Adults,"[4]; 300 ppm ginkgolide A, 300 l/ha spray on Zea mays BBCH 12, adult N. viridula, three days after infestation",20.0%
"CC(C)(C)[C@]1(O)C[C@@H]2OC(=O)C[C@@]23C(=O)O[C@@H]2OC(=O)[C@H](O)[C@]213 [Bilobalide, (3aS,5aR,8aS,9R,10aR)-9-tert-butyl-8,9-dihydroxydihydro-9H-furo[2,3-b]furo[3′,2′;2,3]cyclopenta[1,2-c]furan-2,4,7(3H,8H)-trione]",Relative Efficacy 6DAI,[5]; [10],92%
same,No of alive insects 6DAI,[5]; [10],0.7
same,Relative Efficacy 6DAI,[5]; [11],96%
same,No of alive insects 6DAI,[5]; [11],0.3
same,Relative Efficacy 6DAI,[5]; [12],100%
same,No of alive insects 6DAI,[5]; [12],0.0
same,Relative Efficacy 6DAI,[5]; [13],83%
same,No of alive insects 6DAI,[5]; [13],1.0
same,Relative Efficacy 6DAI,[5]; [14],89%
same,No of alive insects 6DAI,[5]; [14],0.7
same,Relative Efficacy 6DAI,[5]; [15],94%
same,No of alive insects 6DAI,[5]; [15],0.3
same,Mortality of 4th instar nymphs relative to untreated control,[3],85%
same,mortality at 100 ppm,[4]; read-out: Mortality of 4th instar nymphs,84.6%
same,mortality at 100 ppm,[4]; read-out: Mortality of Adults,33.3%

# Reference: patent US10440953B2, “Control of pests in maize by ginkgolides and bilobalide” (priority 2015, dated 2019)
